Measurements reported in patent US6403648B2, “Alkylaminoalkyl-sulfonyl-terminated β-alanineamide amino-diol compounds for treatment of hypertension” (G. D. Searle & Co., priority 1993, dated 2002).

Biological target: T1, human renin (Homo sapiens, UniProt P00797)
T1 construct: purchased National Institute for Biological Standards, London
T1 sequence (P00797 67-406): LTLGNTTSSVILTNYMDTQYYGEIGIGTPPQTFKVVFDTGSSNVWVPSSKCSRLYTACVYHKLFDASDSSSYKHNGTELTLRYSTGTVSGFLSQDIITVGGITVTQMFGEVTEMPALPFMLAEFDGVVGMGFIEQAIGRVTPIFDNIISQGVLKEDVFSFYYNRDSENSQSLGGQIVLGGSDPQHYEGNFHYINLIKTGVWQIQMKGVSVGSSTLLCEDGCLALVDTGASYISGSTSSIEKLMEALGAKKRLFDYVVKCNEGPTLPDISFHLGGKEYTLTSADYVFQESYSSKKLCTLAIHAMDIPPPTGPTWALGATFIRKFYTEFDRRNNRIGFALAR
Assay: Human renin inhibition in vitro
Assay type: biochemical
Settings: human renin with human plasma as substrate, pH 7.4, 37° C., two hours; angiotensin I by radioimmunoassay; read-out: inhibit human renin in vitro, IC50
Method: Compounds of Formula I were evaluated as inhibitors of human renin in an in vitro assay, as follows: This human renin inhibition test has been previously described in detail [Papaioannou et al., Clinical and Experimental Hypertension, A7(9), 1243-1257 (1985)]. Human renin was obtained from the National Institute for Biological Standards, London. An incubation mixture was prepared containing the following components: in a total volume of 0.25 mL: 100 mM Tris-acetate buffer at pH 7.4, 25×10^−6 Goldblatt units of renin, 0.05 mL of plasma from human volunteers taking oral contraceptives, 6.0 mM Na-EDTA, 2.4 mM phenylmethyl sulfonyl fluoride, 1.5 mM 8-hydroxyquinoline, 0.4 mg/mL bovine serum albumin (BSA), and 0.024 mg/mL neomycin sulfate. This mixture was incubated for two hours at 37° C. in the presence or absence of renin inhibitors. The produced angiotensin I was determined by radioimmunoassay (New England Nuclear kit). Test compounds to be assayed were dissolved in DMSO and diluted with 100 mM Tris-acetate buffer at pH 7.4 containing 0.5% BSA to the appropriate concentration. The final concentration of organic solvent in the reaction mixture was less than 1%. Control incubations at 37° C. were used to correct for effects of organic solvent on renin activity. The in vitro enzymatic conversion of angiotensinogen to angiotensin I was inhibited by test compounds of the invention.

Compound CC(C)C[C@H](O)[C@H](O)[C@H](CC1CCCCC1)NC(=O)[C@H](C)CNC(=O)C(Cc1ccccc1)CS(=O)(=O)CCN(C)C (stereo partly shown) [Example 1] has an IC50 of 44 nM.
